Results taken from patent publication US20230295234A1, “ANTIMICROBIAL PEPTIDOMIMETICS” (SPEXIS AG, priority 2020, published 2023).
Bridge positions count the residues as written; N and C are the ends. Square brackets hold non-standard residues; d marks the D form. Peptide text beside a SMILES is read from it. Pro(4R-NH2) = N[C@H]1CN[C@H](C(=O)O)C1; Gly(N-2-aminoethyl) = NCCNCC(=O)O; Hyp = O=C(O)[C@@H]1C[C@@H](O)CN1; Gly(N(CH2)3NH2) = NCCCNCC(=O)O; Pen = CC(C)(S)[C@H](N)C(=O)O; dDab = NCC[C@@H](N)C(=O)O; Dab = NCC[C@H](N)C(=O)O; Nlys = NCCCCNCC(=O)O

How the values were obtained:
[1] = tested on: Escherichia coli ATCC 25922; settings: ATCC 25922
Summary of the method: (§1)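 Standardized inocula (0.5 McFarland in saline, then diluted in MHII broth to approximately 5×10^5 CFU/mL) were exposed to two-fold dilution series of each peptide in the presence of polysorbate 80 (0.002% final).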

[2] = tested on: Escherichia coli MCR-1 Af 45; settings: MCR-1 Af 45
Summary of the method: as §1

[3] = tested on: Klebsiella pneumoniae SSI3010; settings: SSI3010
Summary of the method: as §1

[4] = tested on: human red blood cells (hRBC); assay: Hemolysis of human red blood cells; format: cell-based; settings: red cells of human, 1 h
Summary of the method: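 Percent hemolysis is OD540 of peptide-treated supernatant relative to water-lysed cells. Each peptide was tested at 200 μg/mL against 20% (v/v) washed human erythrocytes. Incubation was 1 h at 37 °C, 300 rpm.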

| Compound | Escherichia coli ATCC 25922 MIC [1] [µg/mL] | Escherichia coli MCR-1 Af 45 MIC [2] [µg/mL] | Klebsiella pneumoniae SSI3010 MIC [3] [µg/mL] | Hemolysis at 0.2 g/L [4] [%] |
| --- | --- | --- | --- | --- |
| CC[C@H](C)[C@H](NC(=O)[C@@H]1C[C@@H](N)CN1C(=O)[C@@H](NC(=O)[C@@H]1C[C@@H](O)CN1C(=O)[C@@H](N)CCCCN)C(C)C)C(=O)N[C@H](C(=O)N[C@@H](Cc1ccc(O)cc1)C(=O)N[C@@H]1C(=O)N[C@@H](CC(N)=O)C(=O)N[C@@H](CCCNC(=N)N)C(=O)N[C@@H](CCN)C(=O)N[C@@H]([C@@H](C)O)C(=O)N[C@H](CCN)C(=O)N[C@@H](CCCCN)C(=O)N[C@H](C(=O)N[C@@H](Cc2ccc(O)cc2)C(=O)N[C@@H](CCCNC(=N)N)C(=O)N[C@@H](Cc2ccc(O)cc2)C(=O)O)CSSC1(C)C)[C@@H](C)O [Example 57, Lys-Hyp-Val-Pro((4R)NH2)-Ile-Thr-Tyr-Pen-Asn-Arg-Dab-Thr-^DDab-Lys-Cys-Tyr-Arg-Tyr] (HELM PEPTIDE1{K.[Hyp].V.[N[C@@H]1C[C@@H](C(=O)[*:2])N([*:1])C1].I.T.Y.[Pen].N.R.[Dab].T.[NCC[C@@H](N[*:1])C(=O)[*:2]].K.C.Y.R.Y}$PEPTIDE1,PEPTIDE1,8:R3-15:R3$$$V2.0) | 0.25 | 0.125 | 0.25 | 0 |
| CC[C@H](C)[C@H](NC(=O)[C@@H]1C[C@@H](N)CN1C(=O)[C@@H](NC(=O)[C@@H]1C[C@@H](O)CN1C(=O)CNCCCN)C(C)C)C(=O)N[C@H](C(=O)N[C@@H](Cc1ccc(O)cc1)C(=O)N[C@@H]1C(=O)N[C@@H](CC(N)=O)C(=O)N[C@@H](CCCNC(=N)N)C(=O)N[C@@H](CCN)C(=O)N[C@@H]([C@@H](C)O)C(=O)N[C@H](CCN)C(=O)N[C@@H](CCCCN)C(=O)N[C@H](C(=O)N[C@@H](Cc2ccc(O)cc2)C(=O)N[C@@H](CCCNC(=N)N)C(=O)N[C@@H](Cc2ccc(O)cc2)C(=O)O)CSSC1(C)C)[C@@H](C)O [Example 58, Norn-Hyp-Val-Pro((4R)NH2)-Ile-Thr-Tyr-Pen-Asn-Arg-Dab-Thr-^DDab-Lys-Cys-Tyr-Arg-Tyr] (H-[Gly(N(CH2)3NH2)][Hyp]V[Pro(4R-NH2)]ITY[Pen]NR[Dab]T[dDab]KCYRY-OH; disulfide 8-15) | 0.25 | 0.125 | 0.25 | 0 |
| CC[C@H](C)[C@H](NC(=O)[C@@H]1C[C@@H](O)CN1C(=O)[C@@H](NC(=O)[C@@H]1C[C@@H](N)CN1C(=O)CNCCCCN)C(C)C)C(=O)N[C@H](C(=O)N[C@@H](Cc1ccc(O)cc1)C(=O)N[C@@H]1C(=O)N[C@@H](CC(N)=O)C(=O)N[C@@H](CCCNC(=N)N)C(=O)N[C@@H](CCN)C(=O)N[C@@H]([C@@H](C)O)C(=O)N[C@H](CCN)C(=O)N[C@@H](CCCCN)C(=O)N[C@H](C(=O)N[C@@H](Cc2ccc(O)cc2)C(=O)N[C@@H](CCCNC(=N)N)C(=O)N[C@@H](Cc2ccc(O)cc2)C(=O)O)CSSC1(C)C)[C@@H](C)O [Example 59, Nlys-Pro((4R)NH2)-Val-Hyp-Ile-Thr-Tyr-Pen-Asn-Arg-Dab-Thr-^DDab-Lys-Cys-Tyr-Arg-Tyr] (H-[Nlys][Pro(4R-NH2)]V[Hyp]ITY[Pen]NR[Dab]T[dDab]KCYRY-OH; disulfide 8-15; N-terminus and C-terminus assumed) | 0.25 | 0.125 | 0.25 | 0 |
| CC[C@H](C)[C@H](NC(=O)[C@@H]1C[C@@H](O)CN1C(=O)[C@@H](NC(=O)CN(CCN)C(=O)CNCCCN)C(C)C)C(=O)N[C@H](C(=O)N[C@@H](Cc1ccc(O)cc1)C(=O)N[C@@H]1C(=O)N[C@@H](CC(N)=O)C(=O)N[C@@H](CCCNC(=N)N)C(=O)N[C@@H](CCN)C(=O)N[C@@H]([C@@H](C)O)C(=O)N[C@H](CCN)C(=O)N[C@@H](CCCCN)C(=O)N[C@H](C(=O)N[C@@H](Cc2ccc(O)cc2)C(=O)N[C@@H](CCCNC(=N)N)C(=O)N[C@@H](Cc2ccc(O)cc2)C(=O)O)CSSC1(C)C)[C@@H](C)O [Example 60, Norn-Ndab-Val-Hyp-Ile-Thr-Tyr-Pen-Asn-Arg-Dab-Thr-^DDab-Lys-Cys-Tyr-Arg-Tyr] (H-[Gly(N(CH2)3NH2)][Gly(N-2-aminoethyl)]V[Hyp]ITY[Pen]NR[Dab]T[dDab]KCYRY-OH; disulfide 8-15; N-terminus assumed) | 0.25 | 0.125 | 0.25 | 0 |
| CC[C@H](C)[C@H](NC(=O)[C@@H]1C[C@@H](O)CN1C(=O)[C@@H](NC(=O)CN(CCN)C(=O)CNCCCCN)C(C)C)C(=O)N[C@H](C(=O)N[C@@H](Cc1ccc(O)cc1)C(=O)N[C@@H]1C(=O)N[C@@H](CC(N)=O)C(=O)N[C@@H](CCCNC(=N)N)C(=O)N[C@@H](CCN)C(=O)N[C@@H]([C@@H](C)O)C(=O)N[C@H](CCN)C(=O)N[C@@H](CCCCN)C(=O)N[C@H](C(=O)N[C@@H](Cc2ccc(O)cc2)C(=O)N[C@@H](CCCNC(=N)N)C(=O)N[C@@H](Cc2ccc(O)cc2)C(=O)O)CSSC1(C)C)[C@@H](C)O [Example 61, Nlys-Ndab-Val-Hyp-Ile-Thr-Tyr-Pen-Asn-Arg-Dab-Thr-^DDab-Lys-Cys-Tyr-Arg-Tyr] (H-[Nlys][Gly(N-2-aminoethyl)]V[Hyp]ITY[Pen]NR[Dab]T[dDab]KCYRY-OH; disulfide 8-15) | 0.25 | 0.125 | 0.125 | 0 |
| CC[C@H](C)[C@H](NC(=O)CN(CCN)C(=O)[C@@H](NC(=O)CN(CCN)C(=O)[C@@H](N)CCCCN)C(C)C)C(=O)N[C@H](C(=O)N[C@@H](Cc1ccc(O)cc1)C(=O)N[C@@H]1C(=O)N[C@@H](CC(N)=O)C(=O)N[C@@H](CCCNC(=N)N)C(=O)N[C@@H](CCN)C(=O)N[C@@H]([C@@H](C)O)C(=O)N[C@H](CCN)C(=O)N[C@@H](CCCCN)C(=O)N[C@H](C(=O)N[C@@H](Cc2ccc(O)cc2)C(=O)N[C@@H](CCCNC(=N)N)C(=O)N[C@@H](Cc2ccc(O)cc2)C(=O)O)CSSC1(C)C)[C@@H](C)O [Example 62, Lys-Ndab-Val-Ndab-Ile-Thr-Tyr-Pen-Asn-Arg-Dab-Thr-^DDab-Lys-Cys-Tyr-Arg-Tyr] (H-K[Gly(N-2-aminoethyl)]V[Gly(N-2-aminoethyl)]ITY[Pen]NR[Dab]T[dDab]KCYRY-OH; disulfide 8-15) | 0.25 | 0.125 | 0.25 | 0 |
| CC[C@H](C)[C@H](NC(=O)[C@@H]1C[C@@H](O)CN1C(=O)[C@@H](NC(=O)[C@@H]1C[C@@H](O)CN1C(=O)[C@H](CCCCN)NC(=N)N)C(C)C)C(=O)N[C@H](C(=O)N[C@@H](Cc1ccc(O)cc1)C(=O)N[C@@H]1C(=O)N[C@@H](CC(N)=O)C(=O)N[C@@H](CCCNC(=N)N)C(=O)N[C@@H](CCN)C(=O)N[C@@H]([C@@H](C)O)C(=O)N[C@H](CCN)C(=O)N[C@@H](CCCCN)C(=O)N[C@H](C(=O)N[C@@H](CCN)C(=O)N[C@@H](CCCNC(=N)N)C(=O)N[C@@H](Cc2ccc(O)cc2)C(=O)O)CSSC1(C)C)[C@@H](C)O [Example 63, Gua-Lys-Hyp-Val-Hyp-Ile-Thr-Tyr-Pen-Asn-Arg-Dab-Thr-^DDab-Lys-Cys-Dab-Arg-Tyr] (HELM PEPTIDE1{[N=C(N)N[C@@H](CCCCN)C(=O)[*:2]].[Hyp].V.[Hyp].I.T.Y.[Pen].N.R.[Dab].T.[NCC[C@@H](N[*:1])C(=O)[*:2]].K.C.[Dab].R.Y}$PEPTIDE1,PEPTIDE1,8:R3-15:R3$$$V2.0) | 0.0625 | 0.0625 | 0.125 | 0 |
| CCCC[C@H](NC(=O)[C@H](CCCNC(=N)N)NC(=O)[C@H](CCC(N)=O)NC(=O)[C@@H]1CSSC[C@H](NC(=O)[C@H](Cc2ccc(O)cc2)NC(=O)[C@@H](NC(=O)[C@@H](NC(=O)[C@@H]2CCCN2C(=O)[C@@H](NC(=O)[C@@H]2CCCN2C(=O)[C@H](CCCCN)NC(=O)[C@@H](N)CCCCN)C(C)C)[C@@H](C)CC)[C@@H](C)CC)C(=O)N[C@@H](CC(N)=O)C(=O)N[C@@H](CCCNC(=N)N)C(=O)N[C@@H](CCN)C(=O)N[C@@H]([C@@H](C)O)C(=O)N[C@H](CCN)C(=O)N[C@@H](CCN)C(=O)N1)C(=O)O [Example 64] (HELM PEPTIDE1{K.K.P.V.P.I.I.Y.C.N.R.[Dab].T.[NCC[C@@H](N[*:1])C(=O)[*:2]].[Dab].C.Q.R.[Nle]}$PEPTIDE1,PEPTIDE1,9:R3-16:R3$$$V2.0) | 0.0625 | 0.125 | 0.25 | 0 |
| CCCC[C@H](NC(=O)[C@H](CCCNC(=N)N)NC(=O)[C@H](CCCNC(=N)N)NC(=O)[C@@H]1CSSC[C@H](NC(=O)[C@H](Cc2ccc(O)cc2)NC(=O)[C@@H](NC(=O)[C@@H](NC(=O)[C@@H]2CCCN2C(=O)[C@@H](NC(=O)[C@@H]2CCCN2C(=O)[C@H](CCCCN)NC(=O)[C@@H](N)CCCCN)C(C)C)[C@@H](C)CC)[C@@H](C)CC)C(=O)N[C@@H](CC(N)=O)C(=O)N[C@@H](CCCNC(=N)N)C(=O)N[C@@H](CCN)C(=O)N[C@@H]([C@@H](C)O)C(=O)N[C@H](CCN)C(=O)N[C@@H](CCN)C(=O)N1)C(=O)O [Example 65] (HELM PEPTIDE1{K.K.P.V.P.I.I.Y.C.N.R.[Dab].T.[NCC[C@@H](N[*:1])C(=O)[*:2]].[Dab].C.R.R.[Nle]}$PEPTIDE1,PEPTIDE1,9:R3-16:R3$$$V2.0) | ≤0.0625 | 0.0625 | 0.0625 | 0 |
